In paper PMC9118553, “In Vivo Bioconcentration of 10 Anionic Surfactants in Rainbow Trout Explained by In Vitro Data on Partitioning and S9 Clearance” (Environmental Science & Technology, 2022):
Where “and” joins values, the source holds several entries; their conditions need not be identical. Identical values can stand only once.

Key:
rainbow trout = experiment: In vivo bioconcentration experiment with a mixture of anionic surfactants, flow-through aquaria, 10 °C, pH 7.8; conditions: for Concentration in fish: individual fish;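 on Uptake rate constant kU: L kg-1 h-1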
Procedure: The bioconcentration of a mixture of 10 anionic surfactants was measured in rainbow trout in water at pH 7.8. […] The experiment was conducted in flow-through aquaria with juvenile rainbow trout at 10 °C. Ethical approval for the experiments was obtained from Stockholms […] (decision 9967-2017). The fish, fish housing, fish handling, and procedure for introducing the mixture of […] chemicals were very similar to our previous study with cationic surfactants;[5] details are provided in Text S1. The experiment consisted of a 4-day exposure phase and a 7-day depuration phase. […] Water samples were collected and fish were sacrificed according to the schedule in Table S4. The water samples were collected just prior to the daily removal of feces from the aquarium. Triplicate samples were taken at each time point. […] The water/methanol mixture was analyzed using liquid chromatography-mass spectrometry (LC-MS)/MS as described below for fish. At each fish sampling, five fish were sacrificed. Following stunning and severance of the spinal cord, the whole fish were placed in a polyethylene bag, weighed, and immediately frozen at -20 °C. The weight of the individual fish at sacrifice was 24.0 ± 5.6 g. Three of the five fish from each time point were prioritized for analysis based on proximity to the median fish weight. Each fish was […] homogenized with an Ultra-turrax dispersing device. […] This mixture was homogenized in a bullet blender for 5 min and then placed in an ultrasound bath at 45 °C for 15 min. Following centrifugation for 15 min@3200 RCF, the supernatant was decanted and the extraction was repeated. The extracts were combined. For instrumental analysis, 5 μL of the fish extract or 60 μL of the water/methanol mixture (water samples) was separated on an Acquity UPLC BEH C18 column fitted with a BEH C18 pre-column and analyzed on a TSQ Quantiva triple quadrupole mass spectrometer. The mobile phase was methanol (10 mM ammonium acetate) and Milli-Q-filtered water (10 mM ammonium acetate) (see Table S5 for the liquid chromatography program). To avoid detergent blank peaks originating from cleaning mobile phase bottles, the methanol was prepared directly in the solvent bottle as delivered and Milli-Q was tapped into an empty methanol bottle. Furthermore, a guard column was fitted between the mobile phase and the autosampler to prevent background contamination from disturbing the analysis. All analytes were quantified against the BEHP internal standard, as it gave better reproducibility. […] The central goal of the analysis was to estimate kU and kT as well as the BCF (=kU/kT) from measurements of surfactant concentration in fish and water samples collected at different time points of the experiment. For the fish, only those time points were included for which CF(measured) was above the limit of quantitation (LOQ) in all three fish (data below the LOQ will have a positive bias; including them would result in a negative bias in kT). In this analysis, there exist two sources of uncertainty: first, uncertainty in the actual concentration in water CW at the time of sample collection and second, variability in the concentration in fish around the (expected) surfactant concentrations in fish assumed to follow model (1). We therefore set up a model in which we considered uncertainty in both water and fish measurements simultaneously by assuming a parametric model for the surfactant concentration in the water over time (either linear or quadratic) and accounted for the uncertainty in the corresponding parameters of the water model during the estimation of kU and kT. This was done in a joint Bayesian model that we estimated via Hamiltonian Monte Carlo. […]

[1] = Baseline screening BCF (0.0125 DMLW, equilibrium partitioning, no biotransformation)
From the text: Recently, the concept of a baseline screening BCF was introduced for surfactants, based on equilibrium partitioning assuming no biotransformation.[19] The baseline screening BCF for the study chemicals exceeded the measured BCF by 1–2.5 orders of magnitude (Table S16), providing further evidence that biotransformation is an important factor influencing the elimination—and thereby the BCF—of the anionic surfactants studied here in rainbow trout. The deviation of PFOA and PFOS from the regression between BCF and DMLW (Figure 1, upper panel) is attributable to them not being biotransformed.
Table S16: Comparison of the BCF (determined with the measured concentrations in water) and the baseline screening BCF (determined as 0.0125 DMLWa)
CHEMICAL Log BCF Log baseline BCF Log difference […]
a Droge, S. T. J.; Scherpenisse, P.; Arnot, J. A.; Armitage, J. M.; McLachlan, M. S.; Nichols, J.; von der Ohe, P.; Bonnell, M.; Hodges, G. Screening the baseline fish bioconcentration potential of various types of surfactants using phospholipid binding data. Environ. Sci.: Processes Impacts

[2] = marked * = measured; used for IVIVE; same values as Table 3; cited from earlier work
[3] = determined using nominal concentrations in water
[4] = from measured concentrations in water, Bayesian estimate, 95% credible interval in brackets
[5] = measured concentrations in water, simpler estimation method (Text S3), 95% confidence intervals in brackets

BCF (rainbow trout; [3]): 0.57 L kg-1 ww | Elimination rate constant kT (rainbow trout; [3]): 0.233 h⁻¹ | Uptake rate constant kU (rainbow trout; [3]): 0.133 L/kg/h | Log BCF (rainbow trout; determined with measured concentrations in water): -0.11 L kg-1 ww | Concentration in fish (rainbow trout; elimination phase, 264 h): 0.84 ng g-1 ww and 0.15 ng g-1 ww (2×) | Elimination rate constant kT (rainbow trout; [4]): 0.178 (0.151–0.206) h^–1 | Uptake rate constant kU (rainbow trout; [4]): 0.136 (0.113–0.163) L kg^–1 ww h^–1 | diffusion coefficient (D) in the epithelial membrane of the gills (rainbow trout; in vivo): 3.7 × 10^–8 m h^–1 | BCF (kinetic) (rainbow trout; kinetic BCF from measured concentrations in water, 95% credible interval in brackets): 0.77 (0.68–0.87) L kg^–1 ww | BCF (rainbow trout; [5]): 0.74 (33) L kg-1 ww | Elimination rate constant kT (rainbow trout; [5]): 0.179 (19) h-1 | Uptake rate constant kU (rainbow trout; [5]): 0.133 (27) L kg-1 ww h-1 | BCF (rainbow trout; own values): 0.77 L kg^–1 | Log difference (baseline BCF vs BCF) [1]: 2.37 L kg-1 ww | Log baseline BCF ([1]; determined as 0.0125 DMLW): 2.26 L kg-1 ww
SMILES: CCCCCCCCCCCOS(=O)(=O)O [C11SO4, undecylsulfate]
Concentration in fish (rainbow trout; elimination phase, 97 h): 5.9 ng g-1 ww and 5.5 ng g-1 ww and 6.7 ng g-1 ww | Concentration in fish (rainbow trout; elimination phase, 98 h): 4.6 ng g-1 ww and 4.4 ng g-1 ww and 3.8 ng g-1 ww | Concentration in fish (rainbow trout; elimination phase, 100 h): 6.6 ng g-1 ww and 3.0 ng g-1 ww and 3.5 ng g-1 ww | Concentration in fish (rainbow trout; elimination phase, 103 h): 1.5 ng g-1 ww and 2.0 ng g-1 ww and 2.7 ng g-1 ww | Concentration in fish (rainbow trout; elimination phase, 120 h): 1.06 ng g-1 ww and 0.77 ng g-1 ww and 0.51 ng g-1 ww | Concentration in fish (rainbow trout; elimination phase, 128 h): 0.66 ng g-1 ww and 0.48 ng g-1 ww and 0.54 ng g-1 ww | Concentration in fish (rainbow trout; elimination phase, 144 h): 0.53 ng g-1 ww and 0.27 ng g-1 ww and 0.19 ng g-1 ww | Concentration in fish (rainbow trout; elimination phase, 168 h): 0.59 ng g-1 ww and 0.22 ng g-1 ww and 0.17 ng g-1 ww | Concentration in fish (rainbow trout; elimination phase, 192 h): 0.08 ng g-1 ww and 0.13 ng g-1 ww and 0.09 ng g-1 ww | Concentration in fish (rainbow trout; exposure phase, 1 h): 3.1 ng g-1 ww and 3.6 ng g-1 ww and 4.1 ng g-1 ww | Concentration in fish (rainbow trout; exposure phase, 2 h): 5.6 ng g-1 ww and 4.4 ng g-1 ww and 4.1 ng g-1 ww | Concentration in fish (rainbow trout; exposure phase, 3 h): 7.5 ng g-1 ww and 9.4 ng g-1 ww and 7.6 ng g-1 ww | Concentration in fish (rainbow trout; exposure phase, 4 h): 10.7 ng g-1 ww and 11.2 ng g-1 ww and 18.0 ng g-1 ww | Concentration in fish (rainbow trout; exposure phase, 6 h): 15.8 ng g-1 ww and 14.7 ng g-1 ww and 14.1 ng g-1 ww | Concentration in fish (rainbow trout; exposure phase, 24 h): 18.5 ng g-1 ww and 15.1 ng g-1 ww and 10.9 ng g-1 ww | Concentration in fish (rainbow trout; exposure phase, 48 h): 7.4 ng g-1 ww and 12.0 ng g-1 ww and 11.2 ng g-1 ww | Concentration in fish (rainbow trout; exposure phase, 72 h): 12.6 ng g-1 ww and 8.7 ng g-1 ww and 8.2 ng g-1 ww | Concentration in fish (rainbow trout; exposure phase, 96 h): 9.9 ng g-1 ww and 8.7 ng g-1 ww and 14.1 ng g-1 ww | log DMW, membrane-water distribution ratio [2]: 4.16
